Legend:
Assay in all cases: relative viability (nuclei count vs DMSO), 5 days (fraction); higher = more cells survive
Salubrinal + Tozasertib = compound: O=C(/C=C/c1ccccc1)NC(NC(=S)Nc1cccc2cccnc12)C(Cl)(Cl)Cl [Salubrinal] + Cc1cc(Nc2cc(N3CCN(C)CC3)nc(Sc3ccc(NC(=O)C4CC4)cc3)n2)n[nH]1 [Tozasertib] (partner 0.1 µM)
Summary of the method: (§1)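 Lung cancer cell lines were seeded in 1536-well plates and dosed by pin tool the next day, with either a single drug or a fixed anchor-drug dose combined with five library-drug doses (not always all listed) spaced in √10 steps. Five days later, one step fixed the cells and stained their nuclei (final 0.05% Triton X-100, 1% formaldehyde, 1 ug/ml Hoechst), and nuclei were counted on 4× images. Relative viability is the nuclei count in treated wells divided by the count in vehicle wells, and each value is the median of duplicate plates.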

Salubrinal + Alpelisib = compound: O=C(/C=C/c1ccccc1)NC(NC(=S)Nc1cccc2cccnc12)C(Cl)(Cl)Cl [Salubrinal] + Cc1nc(NC(=O)N2CCC[C@H]2C(N)=O)sc1-c1ccnc(C(C)(C)C(F)(F)F)c1 [Alpelisib] (partner 2 µM)
Summary of the method: as §1

Salubrinal + Phenformin = compound: O=C(/C=C/c1ccccc1)NC(NC(=S)Nc1cccc2cccnc12)C(Cl)(Cl)Cl [Salubrinal] + N=C(N)NC(=N)NCCc1ccccc1 [Phenformin] (partner 250 µM)
Summary of the method: as §1

Salubrinal + Palbociclib = compound: O=C(/C=C/c1ccccc1)NC(NC(=S)Nc1cccc2cccnc12)C(Cl)(Cl)Cl [Salubrinal] + CC(=O)c1c(C)c2cnc(Nc3ccc(N4CCNCC4)cn3)nc2n(C2CCCC2)c1=O [Palbociclib] (partner 0.5 µM)
Summary of the method: as §1

Row | Cell Line | relative viability (Salubrinal + Tozasertib; first compound 0.08 µM) | relative viability (Salubrinal + Tozasertib; first compound 0.253 µM) | relative viability (Salubrinal + Tozasertib; first compound 0.8 µM) | relative viability (Salubrinal + Tozasertib; first compound 2.53 µM) | relative viability (Salubrinal + Tozasertib; first compound 8 µM) | relative viability (Salubrinal + Alpelisib; first compound 0.08 µM) | relative viability (Salubrinal + Alpelisib; first compound 0.253 µM) | relative viability (Salubrinal + Alpelisib; first compound 0.8 µM) | relative viability (Salubrinal + Alpelisib; first compound 2.53 µM) | relative viability (Salubrinal + Alpelisib; first compound 8 µM) | relative viability (Salubrinal + Phenformin; first compound 0.08 µM) | relative viability (Salubrinal + Phenformin; first compound 0.253 µM) | relative viability (Salubrinal + Phenformin; first compound 0.8 µM) | relative viability (Salubrinal + Phenformin; first compound 2.53 µM) | relative viability (Salubrinal + Phenformin; first compound 8 µM) | relative viability (Salubrinal + Palbociclib; first compound 0.08 µM) | relative viability (Salubrinal + Palbociclib; first compound 0.253 µM) | relative viability (Salubrinal + Palbociclib; first compound 0.8 µM) | relative viability (Salubrinal + Palbociclib; first compound 2.53 µM) | relative viability (Salubrinal + Palbociclib; first compound 8 µM)
1 | NCI-H1437 | 0.415 | 0.362 | 0.418 | 0.404 | 0.373 | 1.12 | 0.782 | 1.15 | 0.94 | 0.969 | 0.314 | 0.251 | 0.343 | 0.283 | 0.306 | 0.321 | 0.334 | 0.327 | 0.315 | 0.322
2 | SK-LU-1 | 0.334 | 0.326 | 0.344 | 0.287 | 0.286 | 1.1 | 0.864 | 1.35 | 1.07 | 0.951 | 0.647 | 0.4 | 0.594 | 0.555 | 0.435 | 0.368 | 0.377 | 0.411 | 0.427 | 0.341
3 | H3255 | 0.502 | 0.65 | 0.802 | 0.551 | 0.477 | 0.913 | 0.676 | 0.762 | 0.693 | 0.769 | 0.364 | 0.349 | 0.44 | 0.386 | 0.335 | 0.315 | 0.344 | 0.319 | 0.299 | 0.332
4 | Calu-6 |  |  |  |  |  | 0.94 | 0.936 | 1.07 | 1.04 | 0.942 |  |  |  |  |  |  |  |  |  | 
5 | NCI-H1792 |  |  |  |  |  | 0.8 |  | 0.646 | 0.676 | 0.611 | 0.258 |  | 0.368 | 0.239 | 0.262 | 0.789 |  | 0.678 | 0.686 | 0.66
6 | NCI-H2170 | 1.02 | 0.778 | 0.783 | 0.77 | 0.665 | 0.883 | 0.703 | 0.859 | 0.811 | 0.706 | 0.468 | 0.423 | 0.241 | 0.403 | 0.373 | 0.436 | 0.326 | 0.447 | 0.395 | 0.372
7 | NCI-H1650 | 0.419 | 0.349 | 0.336 | 0.327 | 0.407 |  |  |  |  |  | 0.497 | 0.462 | 0.423 | 0.423 | 0.422 | 0.314 | 0.297 | 0.334 | 0.366 | 0.375
8 | NCI-H2087 | 0.299 | 0.212 | 0.295 | 0.229 | 0.195 | 1.14 | 0.861 | 1.05 | 1.33 | 1.09 | 0.472 | 0.361 | 0.527 | 0.471 | 0.476 | 0.214 | 0.235 | 0.17 | 0.234 | 0.206
9 | HCC-366 | 0.106 | 0.0941 | 0.118 | 0.0829 | 0.0635 | 0.609 | 0.361 | 0.426 | 0.472 | 0.326 | 0.685 | 0.579 | 0.645 | 0.642 | 0.646 | 0.464 |  | 0.44 | 0.385 | 0.315
10 | NCI-H727 | 0.651 | 0.718 | 0.563 | 0.608 | 0.575 | 0.768 | 0.453 | 0.63 | 0.602 | 0.561 | 0.41 | 0.461 | 0.491 | 0.504 | 0.688 | 0.672 | 0.585 | 0.656 | 0.605 | 0.691
11 | LU99A | 0.253 | 0.267 | 0.265 | 0.275 | 0.27 | 0.644 | 0.559 | 0.66 | 0.476 | 0.53 | 0.921 | 0.916 | 0.992 | 0.906 | 0.896 | 0.419 | 0.425 | 0.458 | 0.388 | 0.447
12 | NCI-H647 | 0.418 | 0.287 | 0.319 | 0.288 | 0.009 | 1.47 | 0.438 | 1.54 | 1.25 | 1.08 | 0.607 | 0.293 | 0.885 | 0.595 | 0.452 | 0.56 | 0.37 | 0.39 | 0.431 | 0.347
13 | EBC-1 |  |  |  |  |  | 0.869 | 0.952 | 0.976 | 0.811 | 0.736 |  |  |  |  |  |  |  |  |  | 
14 | NCI-H2342 | 0.457 | 0.503 | 0.527 | 0.583 | 0.533 |  |  |  |  |  | 0.497 | 0.564 | 0.618 | 0.635 | 0.572 | 0.465 | 0.516 | 0.552 | 0.49 | 0.531
15 | NCI-H1563 |  |  |  |  |  | 0.882 | 0.939 | 1.1 | 0.925 | 0.878 | 0.71 | 0.617 | 0.647 | 0.635 | 0.692 |  |  |  |  | 
16 | NCI-H1623 | 0.431 | 0.434 | 0.445 | 0.396 | 0.412 |  |  |  |  |  | 0.522 | 0.564 | 0.61 | 0.578 | 0.551 |  |  |  |  | 
17 | NCI-H1299 |  |  |  |  |  | 1.04 | 1.03 | 1.05 | 1.15 | 0.982 |  |  |  |  |  |  |  |  |  | 
18 | NCI-H522 | 0.566 | 0.588 | 0.524 | 0.589 | 0.569 |  |  |  |  |  | 0.723 | 0.662 | 0.714 | 0.615 | 0.605 | 1.1 | 1.21 | 0.956 | 0.94 | 1.13
19 | A549 |  |  |  |  |  | 0.726 | 0.806 | 0.755 | 0.76 | 0.616 | 0.174 | 0.143 | 0.175 | 0.119 | 0.17 |  |  |  |  | 
20 | NCI-H1648 | 0.466 | 0.586 | 0.334 | 0.501 | 0.247 |  |  |  |  |  |  |  |  |  |  | 0.255 | 0.258 | 0.252 | 0.22 | 0.236
21 | SW 900 | 0.539 |  | 0.681 | 0.568 | 0.337 |  |  |  |  |  | 0.555 |  | 0.656 | 0.607 | 0.676 | 0.692 | 0.531 | 0.493 | 0.468 | 0.567
22 | IA-LM |  |  |  |  |  | 0.828 | 0.906 | 0.885 | 0.66 | 0.747 |  |  |  |  |  |  |  |  |  | 
23 | ChaGo-K-1 | 0.257 | 0.264 | 0.231 | 0.216 | 0.216 |  |  |  |  |  | 0.506 | 0.461 | 0.535 | 0.455 | 0.45 | 1.02 | 0.756 | 0.954 | 0.938 | 0.837

Source: the supplement of paper PMC10307832
